In patent US6368788B1 (priority 1987, dated 2002):
Values joined by “and” are separate entries in the source; they are usually repeats but may differ in a detail not shown here. Equal entries are not always repeated.

How the values were obtained:
[1] = test system: E-rosette forming (CD2^+) T-lymphocytes; test: In vitro incubation of the children's lymphocytes: E-rosette forming (CD2+) T-lymphocytes; type: cell-based, human
[2] = Frostbite; parameters: species or system human; conditions: in vivo
Protocol: Seventeen patients with frostbite of the extremities were treated with L-Glu-L-Trp either im or intranasally. Eleven patients constituted a control group.

[3] = test system: Plasmodium falciparum; test: Relapsing tropical malaria; type: in vivo, human; parameters: IgG / IgA / IgM: unit not given here
[4] = Complications of pregnancy (Protocol C); parameters: species or system human; conditions: in vivo
Protocol: L-Glu-L-Trp was administered to 34 pregnant women and 27 pregnant women receiving conventional treatment served as a control group. […] Signs of clinical improvement were resolution of weakness and dizziness, increased appetite, and the normalization of the immunological and hematological indices.

[5] = test system: Staphylococci; test: Chronic staphylococcal pyoderma, overview (Protocol A); parameters: species or system human; conditions: in vivo
Protocol: The total clinical trial population eventually under examination consisted of 159 patients with pyoderma, including furunculitis, cellulitis, and folliculitis. Trial Protocol A1, below, details some of the results obtained in this trial. Medications were administered either im or intranasally for 5 consecutive days. Peripheral blood immune indices were decreased prior to treatment and following treatment with L-Glu-L-Trp were restored to within the normal range. […] Clinical improvement was correlated with return of the immune parameters to within the normal range of values. In certain patients, L-Glu-L-Trp was also topically applied as a sterile saline solution of medication for a period of 5 to 10 days at a dosage of 1 μg/kg body weight.

[6] = test system: resident peritoneal macrophages; test: Innate immunity in CBA mice: thymic and spleen mass, splenic lymphocytes, resident peritoneal macrophages; type: in vivo; conditions: for Spleen / Thymus: CBA mice; for NBT Reduction, Induced: macrophages induced with complement opsonized zymosan; for NBT Reduction, Spontaneous / Neutral Red Uptake Absorbance: resident peritoneal macrophages
[7] = test system: antibiotic-resistant Staphylococci; test: Chronic skin diseases caused by antibiotic-resistant Staphylococci (Protocol A2); type: in vivo, human
[8] = test system: M. bovis; type: in vivo, mice; conditions: mouse, in vivo
[9] = test system: Herpes Zoster; conditions: on the average
[10] = test system: bone marrow cells; test: Bone marrow and peripheral blood cells in 5-FU immunosuppressed mice; type: in vivo, CBA mice
Protocol: The effects of L-Glu-L-Trp on bone marrow hematopoietic activity was investigated in 5-fluorouracil (5-FU) immunosuppressed CBA mice. Mice were treated with a dose schedule of 5-FU determined empirically to be sufficient to decrease the absolute number of bone marrow cells and peripheral blood leukocytes by about 50% on day 10-14. Treatment with L-Glu-L-Trp was initiated on day 10, and 1 μg/kg was administered ip daily on that day and each of the following 4 days. Bone marrow and peripheral blood cell populations were quantified on day 15.

[11] = malaria, after L-Glu-L-Trp Therapy (n = 33)
[12] = bone marrow, 5-FU + 1 μg/kg ip daily 5 days, day 15
[13] = peripheral blood, 5-FU + 1 μg/kg ip daily 5 days, day 15

L-Glu-L-Trp
Percentage of E-rosette forming (CD2+) T-lymphocytes [1]: increase in the percentage of E-rosette forming (CD2^+) T-lymphocytes | Clinical outcome [2]: Rapid healing and restoration of tissue integrity | Clinical outcome ([3]; in vivo): decreased incidence of disease relapses | FDP and ATIII levels ([3]; in vivo): the levels of FDP decreased and ATIII increased | PBL and T- and B-lymphocyte counts ([3]; in vivo): increased PBL and T- and B-lymphocyte counts to normal or supra-normal values | ATIII (%) [3, 11]: 98 ± 1.38% | B-Lymphocytes [3, 11]: 0.53 ± 0.02 ×10^9/L | B-Lymphocytes % Normal Value [3, 11]: (115%) | Clotting time (whole blood) [3, 11]: 141 ± 2.4^ | FDP [3, 11]: 23 ± 1.8 µg/mL | Fibrinogen Concentration [3, 11]: 3.4 ± 0.1 g/L | Hagemann factor dependent fibrinolysis [3, 11]: 25 ± 2.58 | IgA [3, 11]: 138 ± 6.0 | IgA % Normal Value [3, 11]: (140%) | IgG [3, 11]: 187 ± 1.9 | IgG % Normal Value [3, 11]: (140%) | IgM [3, 11]: 193 ± 9.0 | IgM % Normal Value [3, 11]: (152%) | Kaolin clotting time [3, 11]: 58 ± 0.3 | Leukocytes [3, 11]: 9.0 ± 0.14 ×10^9/L | Leukocytes % Normal Value [3, 11]: (155%) | Lymphocytes [3, 11]: 2.57 ± 0.09 ×10^9/L | Lymphocytes % Normal Value [3, 11]: (148%) | PTT [3, 11]: 23 ± 0.2 | T-Lymphocytes [3, 11]: 0.94 ± 0.06 ×10^9/L | T-Lymphocytes % Normal Value [3, 11]: (106%) | Thrombotest [3, 11]: 33 ± 0.5 | Total Fibrinogen [3, 11]: 200 ± 2.7^ | Clinical outcome [4]: Decreased fetal hypoxia | Clinical outcome [5]: disappearance of skin manifestations and resolution of pyoderma | B cells Change (% peptide treated/% control) ([6]; 0.01 mg/kg ip daily 6 days): 1.0 | Splenic lymphocytes: B cells (%) ([6]; 0.01 mg/kg ip daily 6 days): 50.8 ± 3.0% | Splenic lymphocytes: T cells (%) ([6]; 0.01 mg/kg ip daily 6 days): 41.2 ± 2.1 % | T cells Change (% peptide treated/% control) ([6]; 0.01 mg/kg ip daily 6 days): ↑ 1.1 | Increase in neutral red uptake by macrophages ([6]; 0.01 mg/kg, not statistically different from control): 75% | Thymic weight ([6]; 1 mg/kg and 0.01 mg/kg ip, 6 days): statistically significant decrease in thymic weight at both dosages | B cells Change (% peptide treated/% control) ([6]; 1.0 mg/kg ip daily 6 days): 1.0 | Splenic lymphocytes: B cells (%) ([6]; 1.0 mg/kg ip daily 6 days): 52.4 ± 1.71% | Splenic lymphocytes: T cells (%) ([6]; 1.0 mg/kg ip daily 6 days): 34.8 ± 2.5% | T cells Change (% peptide treated/% control) ([6]; 1.0 mg/kg ip daily 6 days): ↓ 0.9 | Spleen ([6]; 0.01 mg/kg ip daily 6 days): 69.8 ± 2.6 mg | Thymus ([6]; 0.01 mg/kg ip daily 6 days): 14.8 ± 1.6 mg | Spleen ([6]; 1.0 mg/kg ip daily 6 days): 88.4 ± 4.4 mg | Thymus ([6]; 1.0 mg/kg ip daily 6 days): 14.1 ± 1.3 mg | Increase in NBT reducing activity on induction with complement-opsonized zymosan ([6]; macrophages from treated animals): 1.75 fold and 2 fold | NBT Reduction, Induced ([6]; 0.01 mg/kg): 0.205 ± 0.012 OD540 | NBT Reduction, Induced ([6]; 1 mg/kg): 0.116 ± 0.008 OD540 | NBT Reduction, Spontaneous ([6]; 0.01 mg/kg): 0.101 ± 0.002 OD540 | Neutral Red Uptake Absorbance ([6]; 0.01 mg/kg): 0.604 ± 0.031 | NBT Reduction, Spontaneous ([6]; 1 mg/kg): 0.059 ± 0.003 OD540 | Neutral Red Uptake Absorbance ([6]; 1 mg/kg): 0.469 ± 0.016 | Clinical outcome ([7]; L-Glu-L-Trp then individualized antibiotic): complete recovery in all patients | Increase in antibiotic-sensitivity of the patients' Staphylococci ([7]; patients with secondary T-immunodeficiency): more than 100 fold | Survival [8]: significantly increased survival | Survival Mean ([8]; ip): 39 ± 2 and 36 ± 3 and 30 ± 2 and 33 ± 1 and 31 ± 1 and 28 ± 1 | Survival Median ([8]; ip): 46 ± 10 and 28 ± 3 and 26 ± 1 and 34 ± 3 and 28 ± 1 and 25 ± 1 | Healing earlier than in the control group [9]: 40% | Bone marrow cells ([10]; 1 μg/kg ip, 5 days): an increase in the numbers of myelocytes/neutrophils, stab and segmented neutrophils, and megakaryocytes | Eosinophils (% of Normal Control Value) [10, 12]: (64%) | Eosinophils: % [10, 12]: 1.1% | Eosinophils: Total Cells [10, 12]: 15600 mg⁻¹ | Erythroblasts (% of Normal Control Value) [10, 12]: (64%) | Erythroblasts: % [10, 12]: 2.1% | Erythroblasts: Total Cells [10, 12]: 29600 mg⁻¹ | Erythroid cells (% of Normal Control Value) [10, 12]: (59%) | Erythroid cells: % [10, 12]: 9.7% | Lymphocytes (% of Normal Control Value) [10, 12]: (88%) | Lymphocytes: % [10, 12]: 43.9% | Lymphocytes: Total Cells [10, 12]: 618900 mg⁻¹ | Megakaryocytes (% of Normal Control Value) [10, 12]: (43%) | Megakaryocytes: % [10, 12]: 0.3% | Megakaryocytes: Total Cells [10, 12]: 4200 mg⁻¹ | Monocytes (% of Normal Control Value) [10, 12]: (60%) | Monocytes: % [10, 12]: 2.5% | Monocytes: Total Cells [10, 12]: 35300 mg⁻¹ | Myeloblasts (% of Normal Control Value) [10, 12]: (74%) | Myeloblasts: % [10, 12]: 5.0% | Myeloblasts: Total Cells [10, 12]: 70600 mg⁻¹ | Myelocytes + Neutrophil Metamyelocytes (% of Normal Control Value) [10, 12]: (40%) | Myelocytes + Neutrophil Metamyelocytes: % [10, 12]: 4.0% | Myelocytes + Neutrophil Metamyelocytes: Total Cells [10, 12]: 56400 mg⁻¹ | Myelokaryocytes (% of Normal Control Value) [10, 12]: (58%) | Myelokaryocytes: Total Cells [10, 12]: 1.41e+06 mg⁻¹ | Non-differentiated blast cells (% of Normal Control Value) [10, 12]: (64%) | Non-differentiated blast cells: % [10, 12]: 2.2% | Non-differentiated blast cells: Total Cells [10, 12]: 31000 mg⁻¹ | Promyeloblasts (% of Normal Control Value) [10, 12]: (74%) | Promyeloblasts: % [10, 12]: 3.6% | Promyeloblasts: Total Cells [10, 12]: 50800 mg⁻¹ | Reticular cells (% of Normal Control Value) [10, 12]: (50%) | Reticular cells: % [10, 12]: 0.7% | Reticular cells: Total Cells [10, 12]: 9800 mg⁻¹ | Stab + Seg. neutrophils (% of Normal Control Value) [10, 12]: (34%) | Stab + Seg. neutrophils: % [10, 12]: 24.9% | Stab + Seg. neutrophils: Total Cells [10, 12]: 351000 mg⁻¹ | Blast Cells: % [10, 13]: 0.3% | Blast Cells: Total Cells [10, 13]: 1e+07 L⁻¹ | Eosinophils (% of Normal Control Value) [10, 13]: (100%) | Eosinophils: % [10, 13]: 0.3% | Eosinophils: Total Cells [10, 13]: 1e+07 L⁻¹ | Lymphocytes (% of Normal Control Value) [10, 13]: (93%) | Lymphocytes: % [10, 13]: 41.9% | Lymphocytes: Total Cells [10, 13]: 2.52e+09 L⁻¹ | Monocytes (% of Normal Control Value) [10, 13]: (18%) | Monocytes: % [10, 13]: 2.5% | Monocytes: Total Cells [10, 13]: 2e+07 L⁻¹ | Peripheral Blood Leukocytes (% of Normal Control Value) [10, 13]: (52%) | Peripheral Blood Leukocytes: Total Cells [10, 13]: 2.98e+09 L⁻¹ | Segmented Neutrophils (% of Normal Control Value) [10, 13]: (22%) | Segmented Neutrophils: % [10, 13]: 14.6% | Segmented Neutrophils: Total Cells [10, 13]: 4.3e+08 L⁻¹ | Stab. Neutrophils (% of Normal Control Value) [10, 13]: (26%) | Stab. Neutrophils: % [10, 13]: 7.9% | Stab. Neutrophils: Total Cells [10, 13]: 2.4e+08 L⁻¹
